Measured values reported in patent publication US20170009093A1, “LIQUID COMPOSITION, PIGMENT DISPERSION LIQUID, AND INK JET RECORDING AQUEOUS INK COMPOSITION” (Seiko Epson Corporation, priority 2015, published 2017).

Assay: water-octanol partition coefficient (log P), OECD Test Guideline 107
Assay type: physicochemical
Conditions: not given
Description: The water-octanol partition coefficient, or log P value, is a value defined by OECD Test Guideline 107. […] The constituents shown in Table 1 were as below, and the log P values in Table 1 were determined in accordance with OECD Test Guideline 107. • (1) First solvents

Row | log P (water-octanol partition coefficient) | Compound
1 | 0.56 | CCCCOCCOCCO [butyl diglycol]

Same assay, conditions: OECD Test Guideline 107

Row | Compound | logP | log P (water-octanol partition coefficient)
2 | CCC(O)CO (stereo not shown) [1,2-butanediol] | -0.34 | –
3 | COCCOCCOCCOCCO [Methyl tetraglycol, reference compound] | – | −1.87
4 | dipropylene glycol monomethyl ether | – | −0.46

Same assay, conditions: octanol/water; OECD Test Guideline 107

Row | logP | Compound
5 | 1 | CCCCCC(O)CO (stereo not shown) [1,2-heptanediol]
6 | 0.7 | CCCCC(O)CO (stereo not shown) [1,2-hexanediol]
7 | 1.69 | OCC(CO)(CO)COc1ccccc1 [2-hydroxymethyl-2-phenoxymethyl-1,3-propanediol]
8 | 1.1 | CC(O)(CO)COc1ccccc1 (stereo not shown) [2-methyl-3-phenoxy-1,2-propanediol]
9 | -0.11 | CC(C)(C)C(O)CO (stereo not shown) [3,3-dimethylbutane-1,2-diol]
10 | 1.21 | Cc1cccc(OCC(O)CO)c1 (stereo not shown) [3-(3-methylphenoxy)-1,2-propanediol]
11 | 0.8 | COc1ccc(COCC(O)CO)cc1 (stereo not shown) [3-(4-methoxybenzyloxy)-1,2-propanediol]
12 | 0.88 | OCC(O)COCc1ccccc1 (stereo not shown) [3-benzyloxy-1,2-propanediol]
13 | 0.75 | OCC(O)COc1ccccc1 (stereo not shown) [phenyl glyceryl ether]
